In ChEMBL document CHEMBL5212743, “Selectivity Literature for EUbOPEN Chemogenomics Library wave 3” (2023):

Legend:
[1] = molecular target: Epidermal growth factor receptor (Homo sapiens, UniProt P00533); assay: Selectivity interaction (KinomeScan (DiscoverX)) EUB0000722a EGFR; conditions: at 1 µM
[2] = molecular target: Ribosomal protein S6 kinase alpha-5 (Homo sapiens) (UniProt O75582); assay: Selectivity interaction (KinomeScan (DiscoverX)) EUB0000722a RPS6KA5; conditions: at 1 µM
[3] = molecular target: Cyclin-dependent kinase 8 (Homo sapiens) (UniProt P49336); assay: Selectivity interaction (KinomeScan (DiscoverX)) EUB0000239b CDK8; conditions: at 1 µM
[4] = molecular target: Homeodomain-interacting protein kinase 1 (Homo sapiens, UniProt Q86Z02); assay: Selectivity interaction (KinomeScan (DiscoverX)) EUB0000239b HIPK1; conditions: at 1 µM
[5] = molecular target: Sodium/nucleoside cotransporter 2 (Homo sapiens) (UniProt O43868); assay: Selectivity interaction (Enzyme panel (receptors, ion channels, enzymes, and transporters)) EUB0000239b SLC28A2; conditions: at 10 µM
[6] = molecular target: Serine/threonine-protein kinase Nek3 (Homo sapiens) (UniProt P51956); assay: Selectivity interaction (KinomeScan (DiscoverX)) EUB0000239b NEK3; conditions: at 1 µM
[7] = molecular target: Cathepsin G (Homo sapiens) (UniProt P08311); assay: Selectivity interaction (Protease panel (enzymatic assay)) EUB0000239b CTSG; conditions: at 10 µM
[8] = system: T1, Receptor-type tyrosine-protein kinase FLT3 (Homo sapiens), P36888 [N841I]; assay: Selectivity interaction (KinomeScan (DiscoverX)) EUB0000239b FLT3; conditions: at 1 µM
T1 sequence (whole entry): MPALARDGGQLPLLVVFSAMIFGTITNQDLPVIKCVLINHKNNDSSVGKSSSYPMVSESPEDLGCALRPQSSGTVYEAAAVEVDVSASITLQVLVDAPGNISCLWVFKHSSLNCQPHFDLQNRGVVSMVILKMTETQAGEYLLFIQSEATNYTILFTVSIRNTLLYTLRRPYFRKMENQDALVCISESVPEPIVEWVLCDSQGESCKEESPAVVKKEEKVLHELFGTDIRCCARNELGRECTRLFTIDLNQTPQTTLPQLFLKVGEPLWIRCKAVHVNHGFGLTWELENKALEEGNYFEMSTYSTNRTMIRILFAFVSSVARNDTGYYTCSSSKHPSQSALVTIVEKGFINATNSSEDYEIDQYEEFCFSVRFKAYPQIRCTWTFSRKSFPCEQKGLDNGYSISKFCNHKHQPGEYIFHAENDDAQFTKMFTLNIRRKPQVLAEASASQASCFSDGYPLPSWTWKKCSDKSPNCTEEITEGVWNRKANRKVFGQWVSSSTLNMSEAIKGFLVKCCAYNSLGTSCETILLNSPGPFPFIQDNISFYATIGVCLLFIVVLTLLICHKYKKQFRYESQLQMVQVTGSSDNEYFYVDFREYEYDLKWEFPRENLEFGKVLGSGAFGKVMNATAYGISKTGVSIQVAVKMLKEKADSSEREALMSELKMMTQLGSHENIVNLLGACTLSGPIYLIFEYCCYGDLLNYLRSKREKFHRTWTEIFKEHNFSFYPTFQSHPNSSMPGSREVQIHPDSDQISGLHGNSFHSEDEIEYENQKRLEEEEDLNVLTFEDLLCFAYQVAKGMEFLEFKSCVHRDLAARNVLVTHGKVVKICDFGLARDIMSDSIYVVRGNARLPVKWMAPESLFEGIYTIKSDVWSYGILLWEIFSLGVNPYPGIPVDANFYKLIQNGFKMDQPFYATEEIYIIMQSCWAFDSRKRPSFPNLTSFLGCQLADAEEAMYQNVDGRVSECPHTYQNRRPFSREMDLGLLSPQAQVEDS

[9] = molecular target: Sigma intracellular receptor 2 (Homo sapiens, UniProt Q5BJF2); assay: Selectivity interaction (GPCR panel (PDSP screen)) EUB0000239b TMEM97; conditions: at 10 µM
[10] = system: Phosphatidylinositol 4,5-bisphosphate 3-kinase catalytic subunit alpha isoform (Homo sapiens), P42336 [E545K]; assay: Selectivity interaction (KinomeScan (DiscoverX)) EUB0000239b PIK3CA; conditions: at 1 µM
[11] = molecular target: Microtubule-associated serine/threonine-protein kinase 1 (Homo sapiens) (UniProt Q9Y2H9); assay: Selectivity interaction (KinomeScan (DiscoverX)) EUB0000239b MAST1; conditions: at 1 µM
[12] = molecular target: T2, Dual specificity tyrosine-phosphorylation-regulated kinase 1B (Homo sapiens, UniProt Q9Y463); assay: Selectivity interaction (KinomeScan (DiscoverX)) EUB0000313b DYRK1B; conditions: at 1 µM
[13] = molecular target: Dual specificity tyrosine-phosphorylation-regulated kinase 1A (Homo sapiens, UniProt Q13627); assay: Selectivity interaction (KinomeScan (DiscoverX)) EUB0000313b DYRK1A; conditions: at 1 µM
[14] = molecular target: T3, Serine/threonine-protein kinase TAO3 (Homo sapiens) (UniProt Q9H2K8); assay: Selectivity interaction (KinomeScan (DiscoverX)) EUB0000706a TAOK3; conditions: at 1 µM
T3 sequence (whole entry): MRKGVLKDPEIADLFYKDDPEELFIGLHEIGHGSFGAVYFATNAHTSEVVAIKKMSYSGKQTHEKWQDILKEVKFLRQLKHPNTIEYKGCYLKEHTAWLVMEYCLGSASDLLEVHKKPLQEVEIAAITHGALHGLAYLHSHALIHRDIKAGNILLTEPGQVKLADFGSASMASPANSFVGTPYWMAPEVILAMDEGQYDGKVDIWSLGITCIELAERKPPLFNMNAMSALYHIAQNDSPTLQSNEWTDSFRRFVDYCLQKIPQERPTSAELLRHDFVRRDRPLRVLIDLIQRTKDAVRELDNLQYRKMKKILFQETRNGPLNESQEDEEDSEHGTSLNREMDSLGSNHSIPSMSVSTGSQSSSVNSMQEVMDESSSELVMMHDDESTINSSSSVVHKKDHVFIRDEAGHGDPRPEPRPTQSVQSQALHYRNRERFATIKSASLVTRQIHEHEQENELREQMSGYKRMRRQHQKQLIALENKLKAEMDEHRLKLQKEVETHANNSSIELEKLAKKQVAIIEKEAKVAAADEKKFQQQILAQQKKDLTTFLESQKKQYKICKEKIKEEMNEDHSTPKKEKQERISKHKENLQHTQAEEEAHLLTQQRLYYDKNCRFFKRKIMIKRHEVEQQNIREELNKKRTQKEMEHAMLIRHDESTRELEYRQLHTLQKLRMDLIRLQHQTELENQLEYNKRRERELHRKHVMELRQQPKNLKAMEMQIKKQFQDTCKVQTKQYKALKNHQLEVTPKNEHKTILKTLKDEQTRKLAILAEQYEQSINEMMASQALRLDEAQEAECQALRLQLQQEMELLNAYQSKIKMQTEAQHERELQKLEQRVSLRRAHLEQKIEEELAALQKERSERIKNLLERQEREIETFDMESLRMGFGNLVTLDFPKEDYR

[15] = molecular target: T4, Tyrosine-protein kinase JAK3 (Homo sapiens) (UniProt P52333); assay: Selectivity interaction (KinomeScan (DiscoverX)) EUB0000706a JAK3; conditions: at 1 µM
T4 sequence (whole entry): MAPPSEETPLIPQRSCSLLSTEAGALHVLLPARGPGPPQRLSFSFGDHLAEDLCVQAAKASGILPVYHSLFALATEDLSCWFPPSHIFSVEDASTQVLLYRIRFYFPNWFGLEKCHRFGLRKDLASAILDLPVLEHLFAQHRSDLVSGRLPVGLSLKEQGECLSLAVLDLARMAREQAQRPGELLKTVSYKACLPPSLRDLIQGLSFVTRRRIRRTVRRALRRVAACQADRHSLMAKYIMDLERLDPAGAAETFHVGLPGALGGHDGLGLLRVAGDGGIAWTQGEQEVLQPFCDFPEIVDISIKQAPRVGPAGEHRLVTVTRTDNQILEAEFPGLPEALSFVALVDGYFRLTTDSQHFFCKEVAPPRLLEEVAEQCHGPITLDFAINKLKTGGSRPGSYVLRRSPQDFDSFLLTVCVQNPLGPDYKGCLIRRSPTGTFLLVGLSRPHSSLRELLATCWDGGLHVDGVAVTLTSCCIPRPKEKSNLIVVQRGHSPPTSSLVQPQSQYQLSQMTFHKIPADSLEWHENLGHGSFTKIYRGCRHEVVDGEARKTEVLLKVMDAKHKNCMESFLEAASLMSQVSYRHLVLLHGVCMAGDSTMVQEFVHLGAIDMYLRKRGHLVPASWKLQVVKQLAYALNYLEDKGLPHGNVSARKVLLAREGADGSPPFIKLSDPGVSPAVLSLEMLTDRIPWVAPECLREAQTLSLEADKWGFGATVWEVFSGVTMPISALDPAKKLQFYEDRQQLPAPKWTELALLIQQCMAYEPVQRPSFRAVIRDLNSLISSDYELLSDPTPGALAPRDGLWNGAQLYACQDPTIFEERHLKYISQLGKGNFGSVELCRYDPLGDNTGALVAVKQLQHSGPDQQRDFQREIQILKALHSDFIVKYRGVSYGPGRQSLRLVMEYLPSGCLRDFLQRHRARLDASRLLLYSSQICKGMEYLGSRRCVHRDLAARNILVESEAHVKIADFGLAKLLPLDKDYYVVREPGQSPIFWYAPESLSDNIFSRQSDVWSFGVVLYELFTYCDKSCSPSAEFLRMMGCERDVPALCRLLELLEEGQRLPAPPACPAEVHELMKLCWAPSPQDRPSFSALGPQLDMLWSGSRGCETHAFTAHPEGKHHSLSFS

[16] = molecular target: Phosphatidylinositol 4,5-bisphosphate 3-kinase catalytic subunit alpha isoform (Homo sapiens, UniProt P42336); assay: Selectivity interaction (KinomeScan (DiscoverX)) EUB0000706a PIK3CA; conditions: at 1 µM
[17] = molecular target: T2, Dual specificity tyrosine-phosphorylation-regulated kinase 1B; assay: Selectivity interaction (KinomeScan (DiscoverX)) EUB0000733a DYRK1B; conditions: at 1 µM

T2 sequence (Q9Y463 whole entry, looked up): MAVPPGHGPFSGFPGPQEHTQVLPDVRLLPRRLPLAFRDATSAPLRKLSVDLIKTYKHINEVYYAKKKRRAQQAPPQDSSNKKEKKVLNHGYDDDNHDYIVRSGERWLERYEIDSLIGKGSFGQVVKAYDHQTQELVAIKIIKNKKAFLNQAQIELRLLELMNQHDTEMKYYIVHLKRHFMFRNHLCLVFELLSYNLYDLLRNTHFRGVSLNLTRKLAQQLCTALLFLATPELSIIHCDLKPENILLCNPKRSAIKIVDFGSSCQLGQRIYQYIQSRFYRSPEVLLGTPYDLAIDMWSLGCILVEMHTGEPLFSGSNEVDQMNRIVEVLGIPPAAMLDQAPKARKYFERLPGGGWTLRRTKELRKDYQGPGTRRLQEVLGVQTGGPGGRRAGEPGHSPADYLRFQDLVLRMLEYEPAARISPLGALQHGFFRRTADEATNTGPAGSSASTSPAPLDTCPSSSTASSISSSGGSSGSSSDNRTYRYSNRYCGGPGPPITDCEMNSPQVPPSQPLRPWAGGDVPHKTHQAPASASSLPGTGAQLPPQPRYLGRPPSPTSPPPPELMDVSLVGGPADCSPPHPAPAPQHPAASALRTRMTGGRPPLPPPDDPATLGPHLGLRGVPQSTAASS
Microtubule-associated serine/threonine-protein kinase 1 (Homo sapiens), sequence (Q9Y2H9 whole entry, looked up): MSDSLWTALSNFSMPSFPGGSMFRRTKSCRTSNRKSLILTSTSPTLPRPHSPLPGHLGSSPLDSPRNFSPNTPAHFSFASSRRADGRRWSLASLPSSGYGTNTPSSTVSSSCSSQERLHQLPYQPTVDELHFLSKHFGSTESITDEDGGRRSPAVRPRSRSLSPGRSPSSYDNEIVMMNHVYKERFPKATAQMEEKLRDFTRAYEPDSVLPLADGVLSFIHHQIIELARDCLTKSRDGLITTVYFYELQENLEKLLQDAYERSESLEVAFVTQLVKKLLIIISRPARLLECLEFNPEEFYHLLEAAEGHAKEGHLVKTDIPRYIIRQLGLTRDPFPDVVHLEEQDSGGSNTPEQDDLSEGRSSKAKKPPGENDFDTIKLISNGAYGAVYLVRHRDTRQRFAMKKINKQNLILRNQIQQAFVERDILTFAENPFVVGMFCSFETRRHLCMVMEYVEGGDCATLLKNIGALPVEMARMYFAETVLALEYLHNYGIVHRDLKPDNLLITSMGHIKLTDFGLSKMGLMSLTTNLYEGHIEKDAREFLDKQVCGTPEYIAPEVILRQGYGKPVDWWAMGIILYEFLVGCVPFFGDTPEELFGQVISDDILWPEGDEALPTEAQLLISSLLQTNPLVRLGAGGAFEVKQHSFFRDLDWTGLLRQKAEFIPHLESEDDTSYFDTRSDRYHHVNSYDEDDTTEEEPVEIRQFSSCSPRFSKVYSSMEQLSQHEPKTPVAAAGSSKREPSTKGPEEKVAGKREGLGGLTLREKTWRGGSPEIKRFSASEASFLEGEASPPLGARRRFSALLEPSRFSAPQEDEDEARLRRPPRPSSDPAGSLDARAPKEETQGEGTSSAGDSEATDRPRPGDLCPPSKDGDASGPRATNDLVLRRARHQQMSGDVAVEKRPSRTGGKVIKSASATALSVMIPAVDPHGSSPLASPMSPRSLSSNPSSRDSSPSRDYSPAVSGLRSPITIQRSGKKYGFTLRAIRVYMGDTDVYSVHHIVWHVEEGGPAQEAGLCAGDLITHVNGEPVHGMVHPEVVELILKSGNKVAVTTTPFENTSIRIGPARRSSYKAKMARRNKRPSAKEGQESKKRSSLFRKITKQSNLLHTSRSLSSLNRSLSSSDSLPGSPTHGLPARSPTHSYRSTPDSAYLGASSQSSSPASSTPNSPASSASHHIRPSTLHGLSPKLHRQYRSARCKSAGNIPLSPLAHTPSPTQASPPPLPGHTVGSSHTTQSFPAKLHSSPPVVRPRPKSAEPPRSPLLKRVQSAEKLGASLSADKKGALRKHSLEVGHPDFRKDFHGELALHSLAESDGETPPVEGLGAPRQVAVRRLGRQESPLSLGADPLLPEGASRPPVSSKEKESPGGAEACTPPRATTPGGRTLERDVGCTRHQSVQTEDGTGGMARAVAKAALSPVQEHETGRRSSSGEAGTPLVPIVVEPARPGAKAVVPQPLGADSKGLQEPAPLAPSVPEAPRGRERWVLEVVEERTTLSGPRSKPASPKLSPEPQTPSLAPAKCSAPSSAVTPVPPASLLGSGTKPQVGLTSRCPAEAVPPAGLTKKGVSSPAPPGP
Cyclin-dependent kinase 8 (Homo sapiens), sequence (P49336 whole entry): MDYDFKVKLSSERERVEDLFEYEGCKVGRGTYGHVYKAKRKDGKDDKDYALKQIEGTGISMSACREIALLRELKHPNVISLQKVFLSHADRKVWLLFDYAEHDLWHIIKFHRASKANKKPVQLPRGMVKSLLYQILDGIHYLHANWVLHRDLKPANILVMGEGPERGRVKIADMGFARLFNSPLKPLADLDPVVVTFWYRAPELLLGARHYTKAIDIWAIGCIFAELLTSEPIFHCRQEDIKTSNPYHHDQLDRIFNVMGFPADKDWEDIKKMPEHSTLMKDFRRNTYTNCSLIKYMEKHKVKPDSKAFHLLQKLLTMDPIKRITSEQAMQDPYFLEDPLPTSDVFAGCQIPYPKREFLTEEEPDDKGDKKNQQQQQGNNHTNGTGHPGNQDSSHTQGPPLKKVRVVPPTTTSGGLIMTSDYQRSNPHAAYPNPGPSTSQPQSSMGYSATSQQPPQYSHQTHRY
Cathepsin G (Homo sapiens), sequence (P08311 whole entry): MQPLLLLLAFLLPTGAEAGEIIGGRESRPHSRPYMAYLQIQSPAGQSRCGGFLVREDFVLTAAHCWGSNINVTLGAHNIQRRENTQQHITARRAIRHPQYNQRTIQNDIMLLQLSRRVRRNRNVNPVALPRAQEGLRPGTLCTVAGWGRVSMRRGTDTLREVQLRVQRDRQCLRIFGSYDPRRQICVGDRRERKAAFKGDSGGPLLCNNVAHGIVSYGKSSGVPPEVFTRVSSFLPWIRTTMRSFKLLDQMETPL
Serine/threonine-protein kinase Nek3 (Homo sapiens), sequence (P51956 whole entry): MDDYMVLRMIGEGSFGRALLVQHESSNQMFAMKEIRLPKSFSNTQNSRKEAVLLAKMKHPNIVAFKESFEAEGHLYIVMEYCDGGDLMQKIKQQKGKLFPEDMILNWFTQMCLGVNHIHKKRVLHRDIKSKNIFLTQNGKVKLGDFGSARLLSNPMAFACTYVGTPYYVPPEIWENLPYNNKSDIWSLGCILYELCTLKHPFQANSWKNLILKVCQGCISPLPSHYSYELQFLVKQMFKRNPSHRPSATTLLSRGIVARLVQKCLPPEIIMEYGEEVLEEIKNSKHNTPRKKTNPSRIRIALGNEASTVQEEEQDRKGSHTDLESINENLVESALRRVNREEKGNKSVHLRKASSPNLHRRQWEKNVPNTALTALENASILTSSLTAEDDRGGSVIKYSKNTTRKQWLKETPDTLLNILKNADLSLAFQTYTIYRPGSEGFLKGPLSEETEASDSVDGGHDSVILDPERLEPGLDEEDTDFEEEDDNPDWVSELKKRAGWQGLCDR
Homeodomain-interacting protein kinase 1, sequence (Q86Z02 whole entry, looked up): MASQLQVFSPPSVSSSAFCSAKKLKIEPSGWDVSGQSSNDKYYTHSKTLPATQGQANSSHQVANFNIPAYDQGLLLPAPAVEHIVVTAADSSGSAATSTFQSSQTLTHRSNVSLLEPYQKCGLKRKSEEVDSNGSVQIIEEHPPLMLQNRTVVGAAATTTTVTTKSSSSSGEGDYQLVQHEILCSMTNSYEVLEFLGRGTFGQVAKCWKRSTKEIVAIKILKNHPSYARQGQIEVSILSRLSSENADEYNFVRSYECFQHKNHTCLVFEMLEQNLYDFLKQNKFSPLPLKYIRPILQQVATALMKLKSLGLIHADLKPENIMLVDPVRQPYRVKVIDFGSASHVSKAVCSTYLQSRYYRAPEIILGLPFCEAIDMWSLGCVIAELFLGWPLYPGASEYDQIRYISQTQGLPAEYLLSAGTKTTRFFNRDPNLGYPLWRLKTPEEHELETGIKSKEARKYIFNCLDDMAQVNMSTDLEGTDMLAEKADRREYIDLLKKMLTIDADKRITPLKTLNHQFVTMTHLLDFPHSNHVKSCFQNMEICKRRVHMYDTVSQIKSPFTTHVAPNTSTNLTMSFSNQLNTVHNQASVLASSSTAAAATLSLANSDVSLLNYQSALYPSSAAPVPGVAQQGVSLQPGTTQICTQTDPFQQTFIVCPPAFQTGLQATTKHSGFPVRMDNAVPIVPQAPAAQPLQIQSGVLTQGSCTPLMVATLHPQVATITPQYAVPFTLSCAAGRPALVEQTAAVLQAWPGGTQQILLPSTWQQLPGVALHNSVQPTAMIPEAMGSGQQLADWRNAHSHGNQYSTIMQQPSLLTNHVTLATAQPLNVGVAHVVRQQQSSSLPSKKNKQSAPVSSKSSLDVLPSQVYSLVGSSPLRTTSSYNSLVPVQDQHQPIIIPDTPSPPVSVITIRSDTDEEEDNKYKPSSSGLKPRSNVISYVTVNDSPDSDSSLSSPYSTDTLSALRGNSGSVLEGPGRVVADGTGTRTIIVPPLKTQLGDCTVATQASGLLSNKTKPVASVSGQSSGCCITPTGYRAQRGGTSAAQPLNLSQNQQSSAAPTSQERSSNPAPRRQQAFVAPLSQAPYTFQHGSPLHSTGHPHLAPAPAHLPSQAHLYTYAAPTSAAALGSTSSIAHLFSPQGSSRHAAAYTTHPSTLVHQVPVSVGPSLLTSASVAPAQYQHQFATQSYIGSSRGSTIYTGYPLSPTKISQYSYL
Sigma intracellular receptor 2, sequence (Q5BJF2 whole entry, canonical isoform): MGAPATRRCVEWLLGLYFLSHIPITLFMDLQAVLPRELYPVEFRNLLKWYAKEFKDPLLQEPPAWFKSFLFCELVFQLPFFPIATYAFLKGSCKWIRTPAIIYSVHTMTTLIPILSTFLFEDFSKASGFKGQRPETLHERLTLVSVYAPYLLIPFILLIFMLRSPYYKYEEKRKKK

Structure (SMILES): CCN(Cc1ccc(Cl)cc1)c1ncc(C(=O)NCCCN2CCCC2=O)c(NC2CCCC2)n1
- % of control [1]: 27%
- % of control [2]: 35%

Structure (SMILES): CO[C@@H](C)c1c(Nc2ccc([C@H](N(C)C(=O)C3CCS(=O)(=O)CC3)C(F)(F)F)cc2)cnc2cc(Cl)nn12
- % of control [3]: 39%
- % of control [4]: 40%
- % of inhibition [5]: 52%
- % of control [6]: 40%
- % of inhibition [7]: 7%
- % of control [8]: 23%
- % of inhibition [9]: 49.9%
- % of control [10]: 48%
- % of control [11]: 43%

Structure (SMILES): CC(C)(O)c1cncc(-c2nc3ccc(F)cc3n2C2CC2)c1
- % of control [12]: 44%
- % of control [13]: 48%

Structure (SMILES): C[C@@H]1CN(c2cc(-c3nn(C)c4ccc(OC5(C)CC5)cc34)ncn2)C[C@H](C)O1
- % of control [14]: 35%
- % of control [15]: 12%
- % of control [16]: 32%

Structure (SMILES): FC(F)(F)c1ccc2c(c1)nc(-c1cccnc1)n2C1CC1
- % of control [17]: 53%
